Experimental findings from ChEMBL document CHEMBL1136148, “Tetrabiphenylporphyrin-based receptors for protein surfaces show sub-nanomolar affinity and enhance unfolding” (Bioorg Med Chem Lett, 2003) are described below.

SMILES strings stand for the structures.

A short description of the experiment: Binding ability of the receptor to the surface of Cytochrome c and activity expressed as Dissociation constant(Kd). Set-up: species or system Equus caballus.

Take `O=C(O)c1ccc(-c2ccc(-c3c4nc(c(-c5ccc(-c6ccc(C(=O)O)cc6)cc5)c5ccc([nH]5)c(-c5ccc(-c6ccc(C(=O)O)cc6)cc5)c5ccc([nH]5)c(-c5ccc(-c6ccc(C(=O)O)cc6)cc5)c5nc3C=C5)C=C4)cc2)cc1`: the Kd came to 17 µM. For the molecule `COC(=O)[C@H](CC(=O)O)NC(=O)c1cc(C(=O)N[C@@H](CC(=O)O)C(=O)OC)cc(-c2ccc(-c3c4nc(c(-c5ccc(-c6cc(C(=O)N[C@@H](CC(=O)O)C(=O)OC)cc(C(=O)N[C@@H](CC(=O)O)C(=O)OC)c6)cc5)c5ccc([nH]5)c(-c5ccc(-c6cc(C(=O)N[C@@H](CC(=O)O)C(=O)OC)cc(C(=O)N[C@H](CC(=O)O)C(=O)OC)c6)cc5)c5nc(c(-c6ccc(-c7cc(C(=O)N[C@@H](CC(=O)O)C(=O)OC)cc(C(=O)N[C@@H](CC(=O)O)C(=O)OC)c7)cc6)c6ccc3[nH]6)C=C5)C=C4)cc2)c1`, binding was put at a Kd of 1.7 µM. As for `O=C(O)c1cc(C(=O)O)cc(-c2ccc(-c3c4nc(c(-c5ccc(-c6cc(C(=O)O)cc(C(=O)O)c6)cc5)c5ccc([nH]5)c(-c5ccc(-c6cc(C(=O)O)cc(C(=O)O)c6)cc5)c5ccc([nH]5)c(-c5ccc(-c6cc(C(=O)O)cc(C(=O)O)c6)cc5)c5nc3C=C5)C=C4)cc2)c1`, the figure is 1.5 µM. `O=C(O)C[C@H](NC(=O)c1cc(C(=O)N[C@@H](CC(=O)O)C(=O)O)cc(-c2ccc(-c3c4nc(c(-c5ccc(-c6cc(C(=O)N[C@@H](CC(=O)O)C(=O)O)cc(C(=O)N[C@@H](CC(=O)O)C(=O)O)c6)cc5)c5ccc([nH]5)c(-c5ccc(-c6cc(C(=O)N[C@@H](CC(=O)O)C(=O)O)cc(C(=O)N[C@H](CC(=O)O)C(=O)O)c6)cc5)c5nc(c(-c6ccc(-c7cc(C(=O)N[C@@H](CC(=O)O)C(=O)O)cc(C(=O)N[C@@H](CC(=O)O)C(=O)O)c7)cc6)c6ccc3[nH]6)C=C5)C=C4)cc2)c1)C(=O)O` returned a Kd of 0.00067 µM.
